Experimental data reported in patent EP1015457B1, “1,3-DIOXOLO/4,5-H//2,3/BENZODIAZEPINE DERIVATIVES AS AMPA/KAINATE RECEPTOR INHIBITORS” (EGIS GYOGYSZERGYAR RT., priority 1997, dated 1999).
Read-outs that look alike come from different tables or passages of the source.

Tests used:
[1] = test system: CAl neurones of rat hippocampus; assay: PSI (inhibition of population spike) test; format: cell-based; settings: electric stimulation of Shaffer collateral comissural pathway
Experimental: PSI (inhibition of population spike) test
The field potentials (population spike) evoked by electric stimulation of the Shaffer collateral comissural pathway were measured in the CAl neurones of rat hippocampus. The population spike can be inhibited by AMPA/kainate antagonists. The non-cumulative IC50 values are shown in Table I. /Tarnawa, I., Molnár, P., Gaál, L., Andrási, F.: Inhibition of hippocampal field potentials by GYKI 52466 in vitro and in vivo, Acta Physiol. Hung., 79(2), 163-9 (1992)/.

[2] = test system: isolated retinal preparation of the chicken; assay: SD (spreading depression) test, evoked by kainate; format: cell-based; settings: Gallus gallus, chicken retina
Source text: SD (spreading depression) test
The method is based on the phenomenon of spreading depression evoked by kainate in isolated retinal preparation of the chicken. The formation of spreading depression is inhibited (delayed) by AMPA/kainate antagonists. /Sheardown M.J.: The triggering of spreading depression in the chicken retina: a pharmacological study, Brain Res., 607(1-2), 189-194 (1993)/.

male DBA/2j strain mice = assay: Audiogenic seizure (AS) test; format: in vivo; settings: Mus musculus, ip., DBA/2j mice, inhibition of sound induced seizure
Experimental: Audiogenic seizure (AS) test
The experiments were carried out by the slightly modified method of De Sarro et al. /De Sarro, G.B., Croucher, M.J. and Meldrum, B.S.: Anticonvulsant action of DS 103-282, Neuropharm., 23, 525 (1984)/. Groups of 8 male DBA/2j strain mice weighing 7 to 14 g were treated ip. with the test substance in 10 ml/kg volume. 15 minutes later, the animals were placed into a covered glass container (30 cm in diameter) and exposed to a 14 kHz 120 dB tone for 60 s at the most. Seizure response was assessed using the following scale: 0 = normal behaviour, 1 = wild running, 2 = clonus, 3 = tonic flexor seizure, 4 = tonic extensor seizure. The maximum response during the 60 s exposure was recorded for each animal. Lethality was also noted. The ED50 values were determined by the method of Litchfield and Wilcoxon concerning the inhibition of clonic seizures and tonic extensor convulsions.

male NMRI mice [3] = assay: Maximal electroshock test (MES); format: in vivo; settings: Mus musculus, 0.5 h, ip., inhibition of maximal electroshock, 30 minutes after treatment
Experimental: Maximal electroshock test (MES)
Male NMRI mice weighing 20 to 30 g were used for the method of Swinyard et al. /Swinyard, E.A., Brown, W.C. and Goodman, L.S.: Comparative assays of antiepileptic drugs in mice and rats, J. Pharmacol., 106, 319 (1952)/. The animals, 10 in each group, were treated ip. either with various doses of the test substance or with vehicle. After 30 minutes, a 50 Hz, 40 mA electroshock was applied for 0.4 s through corneal electrodes. The number of animals that developed tonic extensor convulsion of the hind-limbs was registered, percent inhibition was calculated, and ED50 values were determined by the method of Litchfield and Wilcoxon /Litchfield, J.T., Wilcoxon, F.A.: A simplified method of evaluating dose-effect experiments, J. Pharmacol. Exp. Ther., 96, 99 (1949)/ and summarized in Table III.

male NMRI mice [4] = assay: Global ischemia induced by magnesium chloride (gasping time); format: in vivo; settings: for Effect in % (increase in gasping time): Dose 30 mg/kg ip., magnesium chloride iv. after 30 minutes; for ID50: ip., gasping time, calculated by linear regression
Experimental: Global ischemia induced by magnesium chloride
The experiments were carried out as described by Berga et al. /Berga, P., Beckett, P.R., Roberts, D.J., Llenas, J., Massingham, R.: Synergistic interactions between piracetam and dihydroergocristine in some animal models of cerebral hypoxia and ischemia, Arzneim.--Forsch., 36, 1314-1320 (1986)/. Groups of 10 male NMRI mice weighing 20 to 25 g were treated ip. with the test substance in […]. After 30 minutes, saturated aqueous magnesium chloride solution was applied iv. (5 ml/kg) resulting in an immediate cardiac arrest. The elapsed time between the iv. injection and the last gasping was measured (gasping time). The means of the treated groups were expressed as percent of control. Statistical analysis was done by ANOVA followed by DUNCAN test. The dose resulting in 50 % descrease in gasping time (ID50) was calculated by linear regression.

male NMRI mice [5] = assay: Muscle relaxant effect, 60° inclined screen according to Hoppe; format: in vivo; settings: for muscle relaxant effect in the inclined screen: 60 mg/kg dose; for muscle relaxant effect in the inclined screen / ED50 / Muscle relaxant effect duration: mice; for ED50: Mus musculus, determined at the time of maximal effect; for ED50 / Muscle relaxant effect duration: ip.; for Muscle relaxant effect duration: time of last reading when the effect was at least 30 %
Experimental: The assay was done according to Hoppe in male NMRI mice weighing 20 to 25 g, with 10 animals in each group /Hoppe, J.O., J . Pharmacol. Exp. Ther., 100, 333 (1950)/. Following the ip. treatment of animals, the number of mice showing muscle weakness were recorded at every 10 minutes in the first hour and at half hour intervals afterwards. The animals falling off the 60° inclined screen within 30 seconds were considered positive. ED50 values of the given compounds were determined at each time. The duration of effect was defined as the time of last reading when the effect was at least 30 %.

[6] = clonic seizures, read-out: AS ED50 clonic convulsion
[7] = tonic extensor convulsions, read-out: AS ED50 tonic convulsion

SMILES	Percent inhibition of population spike (10 micron) [1] [%]	IC50 [2] [nM]	ED50 (male DBA/2j strain mice; [6]) [mg/kg]	ED50 (male DBA/2j strain mice; [7]) [mg/kg]	ED50 (male NMRI mice [3]) [mg/kg]	Effect in % (increase in gasping time) (male NMRI mice [4]) [%]	ID50 (male NMRI mice [4]) [mg/kg]	muscle relaxant effect in the inclined screen (male NMRI mice [5])	ED50 (male NMRI mice [5]) [mg/kg]	muscle relaxant effect (male NMRI mice [5]; at about 4.5 times higher dose than the anticonvulsive ED50 (6.9 mg/kg))	Muscle relaxant effect duration (male NMRI mice [5])
CC1Cc2cc3c(cc2C(c2ccc(N)cc2)=NN1C(=O)NN)OCO3 (racemic) [Example 4, (±)-5-(4-Aminophenyl)-7-(N-aminocarbamoyl)--7,8-dihydro-8-methyl-9H-1,3-dioxolo/4,5-h//2,3/benzodiazepine]	95										
CC1=NN=C(c2ccc(N)cc2)c2cc3c(cc2C1)OCO3 [A, 8-Methyl-5--(4-aminophenyl)-9H-1,3-dioxolo/4,5-h//2,3/benzodiazepine, reference compound]	58	9500	4.3	3.6	6.9	55	30	all the treated animals showed muscle relaxation	24.5	about 50%	1 h
CNC(=O)N1N=C(c2ccc(N)cc2)c2cc3c(cc2C=C1C)OCO3 [Example 11, 5-(4-Aminophenyl)-8-methyl-7-methylcarbamoyl-7H-1,3-dioxolo/4,5-h//2,3/benzodiazepine]		2800									
CONC(=O)N1N=C(c2ccc(N)cc2)c2cc3c(cc2CC1C)OCO3 (racemic) [Example 3, (±)-5-(4-Aminophenyl)-7,8-dihydro-8-methyl--7-(N-methoxycarbamoyl)-9H-1,3-dioxolo/4,5-h//2,3/benzodiazepine]	95	1500			3.7	52	27		18.1		4 h
CC1=Cc2cc3c(cc2C(c2ccc(N)cc2)=NN1C(=O)NCCN1CCOCC1)OCO3 [Example 6, 5-(4-Aminopheayl)-8-methyl-7H-1,3-dioxolo/4,5-h//2,3/benzodiazepine-7-carboxylic acid-(2-morpholino-4-ylethyl)amide]		6500			~10			no muscle relaxant effect			
CC1Cc2cc3c(cc2C(c2ccc(N)cc2)=NN1C(=O)NC1CC1)OCO3 (racemic) [Example 2, (±)-5-(4-Aminophenyl)-7-(N-cyclopropylcarbamoyl)-7,8-dihydro-8-methyl-9H-1,3--dioxolo/4,5-h//2,3/benzodiazepine]	100	1300	2.5	1.6	4.6	61	13		21.1		higher than 2 hr
